Measurements reported in the supplement of paper PMC8612539.
Converted amounts (≈) assume the structure as drawn.

Key:
Pasteurella multocida = test: minimum inhibitory concentration (MIC)
Protocol: (§1)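 Broth microdilution MIC (Sensititre BOPO7F bovine plate, CLSI methods) of 19 antimicrobials against field isolates of P. multocida, M. haemolytica, H. somni (deep nasopharyngeal swabs) and E. coli, Enterococcus spp. (rectal swabs) from weaned dairy heifers. Incubation 16-24 h at 35 C. MIC is the lowest concentration preventing visible growth. Values with <= or > lie at the tested range limits. Trimethoprim-sulfamethoxazole is given as the trimethoprim component of a 1:19 mixture.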

Enterococcus spp. = test: minimum inhibitory concentration (MIC)
Protocol: as §1

CNC(C)C1CCC(N)C(OC2C(N)CC(N)C(OC3OCC(C)(O)C(NC)C3O)C2O)O1 (centres undefined) [Gentamicin]
minimum inhibitory concentration [µg/mL]
Settings | Enterococcus spp. | Pasteurella multocida
isolate (source animal id): 2 | 8 (≈ 16.8 µM) | –
isolate (source animal id): 10 | – | 4 (≈ 8.38 µM)
isolate (source animal id): 11 | – | 2 (≈ 4.19 µM)
isolate (source animal id): 12 | – | 4 (≈ 8.38 µM)
isolate (source animal id): 19 | – | 4 (≈ 8.38 µM)
isolate (source animal id): 23 | – | 4 (≈ 8.38 µM)
isolate (source animal id): 26 | – | 4 (≈ 8.38 µM)
isolate (source animal id): 35 | 16 (≈ 33.5 µM) | –
isolate (source animal id): 42 | 8 (≈ 16.8 µM) | –
isolate (source animal id): 44 | 16 (≈ 33.5 µM) | –
isolate (source animal id): 79 | 16 (≈ 33.5 µM) | –
isolate (source animal id): 88 | 4 (≈ 8.38 µM) | –
isolate (source animal id): 91 | 4 (≈ 8.38 µM) | –
isolate (source animal id): 92 | 2 (≈ 4.19 µM) | –
isolate (source animal id): 98 | – | 4 (≈ 8.38 µM)
isolate (source animal id): 104 | – | 2 (≈ 4.19 µM)
isolate (source animal id): 111 | 4 (≈ 8.38 µM) | –
isolate (source animal id): 115 | – | 4 (≈ 8.38 µM)
isolate (source animal id): 117 | – | 4 (≈ 8.38 µM)
isolate (source animal id): 118 | – | 4 (≈ 8.38 µM)
isolate (source animal id): 121 | – | 4 (≈ 8.38 µM)
isolate (source animal id): 122 | 16 (≈ 33.5 µM) | –
isolate (source animal id): 123 | 8 (≈ 16.8 µM) | –
isolate (source animal id): 124 | – | 4 (≈ 8.38 µM)
isolate (source animal id): 125 | – | 4 (≈ 8.38 µM)
isolate (source animal id): 128 | – | 4 (≈ 8.38 µM)
isolate (source animal id): 131 | – | 16 (≈ 33.5 µM)
isolate (source animal id): 133 | 16 (≈ 33.5 µM) | –
isolate (source animal id): 135 | – | 8 (≈ 16.8 µM)
isolate (source animal id): 136 | – | 4 (≈ 8.38 µM)
isolate (source animal id): 140 | – | 4 (≈ 8.38 µM)
isolate (source animal id): 144 | – | 4 (≈ 8.38 µM)
isolate (source animal id): 146 | – | 4 (≈ 8.38 µM)
isolate (source animal id): 150 | – | 4 (≈ 8.38 µM)
isolate (source animal id): 151 | – | 4 (≈ 8.38 µM)
isolate (source animal id): 153 | – | 4 (≈ 8.38 µM)
isolate (source animal id): 155 | – | 4 (≈ 8.38 µM)
isolate (source animal id): 157 | – | 4 (≈ 8.38 µM)
isolate (source animal id): 158 | 16 (≈ 33.5 µM) | –
isolate (source animal id): 160 | – | 4 (≈ 8.38 µM)
isolate (source animal id): 164 | – | 4 (≈ 8.38 µM)
isolate (source animal id): 165 | – | 4 (≈ 8.38 µM)
isolate (source animal id): 167 | – | 4 (≈ 8.38 µM)
isolate (source animal id): 168 | 8 (≈ 16.8 µM) | 4 (≈ 8.38 µM)
isolate (source animal id): 169 | 8 (≈ 16.8 µM) | 4 (≈ 8.38 µM)
isolate (source animal id): 170 | – | 4 (≈ 8.38 µM)
isolate (source animal id): 171 | 4 (≈ 8.38 µM) | 4 (≈ 8.38 µM)
isolate (source animal id): 172 | – | 4 (≈ 8.38 µM)
isolate (source animal id): 173 | – | 4 (≈ 8.38 µM)
isolate (source animal id): 174 | – | 4 (≈ 8.38 µM)
isolate (source animal id): 175 | 8 (≈ 16.8 µM) | 4 (≈ 8.38 µM)
isolate (source animal id): 176 | – | 4 (≈ 8.38 µM)
isolate (source animal id): 177 | 8 (≈ 16.8 µM) | 4 (≈ 8.38 µM)
isolate (source animal id): 178 | – | 4 (≈ 8.38 µM)
isolate (source animal id): 179 | – | 4 (≈ 8.38 µM)
isolate (source animal id): 181 | 8 (≈ 16.8 µM) | –
isolate (source animal id): 182 | 8 (≈ 16.8 µM) | 4 (≈ 8.38 µM)
isolate (source animal id): 183 | 8 (≈ 16.8 µM) | –
isolate (source animal id): 187 | 8 (≈ 16.8 µM) | –
isolate (source animal id): 190 | 8 (≈ 16.8 µM) | –
isolate (source animal id): 192 | – | 4 (≈ 8.38 µM)
isolate (source animal id): 193 | – | 4 (≈ 8.38 µM)
isolate (source animal id): 194 | 4 (≈ 8.38 µM) | –
isolate (source animal id): 195 | 8 (≈ 16.8 µM) | 4 (≈ 8.38 µM)
isolate (source animal id): 196 | – | 4 (≈ 8.38 µM)
isolate (source animal id): 197 | 8 (≈ 16.8 µM) | 4 (≈ 8.38 µM)
isolate (source animal id): 198 | – | 4 (≈ 8.38 µM)
isolate (source animal id): 199 | – | 4 (≈ 8.38 µM)
isolate (source animal id): 200 | – | 4 (≈ 8.38 µM)
isolate (source animal id): 201 | – | 4 (≈ 8.38 µM)
isolate (source animal id): 203 | – | 4 (≈ 8.38 µM)
isolate (source animal id): 204 | – | 4 (≈ 8.38 µM)
isolate (source animal id): 205 | – | 4 (≈ 8.38 µM)
isolate (source animal id): 206 | – | 4 (≈ 8.38 µM)
isolate (source animal id): 207 | – | 4 (≈ 8.38 µM)
isolate (source animal id): 208 | – | 4 (≈ 8.38 µM)
isolate (source animal id): 209 | – | 4 (≈ 8.38 µM)
isolate (source animal id): 210 | – | 4 (≈ 8.38 µM)
isolate (source animal id): 211 | 8 (≈ 16.8 µM) | –
isolate (source animal id): 213 | – | 4 (≈ 8.38 µM)
isolate (source animal id): 214 | 16 (≈ 33.5 µM) | –
isolate (source animal id): 216 | – | 4 (≈ 8.38 µM)
isolate (source animal id): 222 | 8 (≈ 16.8 µM) | –
isolate (source animal id): 223 | 8 (≈ 16.8 µM) | 4 (≈ 8.38 µM)
isolate (source animal id): 227 | – | 2 (≈ 4.19 µM)
isolate (source animal id): 228 | 8 (≈ 16.8 µM) | –
isolate (source animal id): 229 | – | 2 (≈ 4.19 µM)
isolate (source animal id): 230 | 8 (≈ 16.8 µM) | –
isolate (source animal id): 233 | – | 4 (≈ 8.38 µM)
isolate (source animal id): 234 | – | 4 (≈ 8.38 µM)
isolate (source animal id): 235 | 4 (≈ 8.38 µM) | –
isolate (source animal id): 236 | 4 (≈ 8.38 µM) | –
isolate (source animal id): 237 | – | 4 (≈ 8.38 µM)
isolate (source animal id): 239 | 4 (≈ 8.38 µM) | –
isolate (source animal id): 241 | 4 (≈ 8.38 µM) | 4 (≈ 8.38 µM)
isolate (source animal id): 244 | 4 (≈ 8.38 µM) | –
isolate (source animal id): 245 | – | 4 (≈ 8.38 µM)
isolate (source animal id): 246 | 8 (≈ 16.8 µM) | –
isolate (source animal id): 247 | 4 (≈ 8.38 µM) | 4 (≈ 8.38 µM)
isolate (source animal id): 250 | 8 (≈ 16.8 µM) | 2 (≈ 4.19 µM)
isolate (source animal id): 252 | 8 (≈ 16.8 µM) | –
isolate (source animal id): 254 | – | 4 (≈ 8.38 µM)
isolate (source animal id): 255 | – | 4 (≈ 8.38 µM)
isolate (source animal id): 258 | – | 4 (≈ 8.38 µM)
isolate (source animal id): 261 | – | 2 (≈ 4.19 µM)
isolate (source animal id): 262 | – | 4 (≈ 8.38 µM)
isolate (source animal id): 268 | 4 (≈ 8.38 µM) | –
isolate (source animal id): 269 | – | 4 (≈ 8.38 µM)
isolate (source animal id): 270 | – | 4 (≈ 8.38 µM)
isolate (source animal id): 274 | – | 4 (≈ 8.38 µM)
isolate (source animal id): 275 | – | 4 (≈ 8.38 µM)
isolate (source animal id): 276 | – | 4 (≈ 8.38 µM)
isolate (source animal id): 277 | – | 4 (≈ 8.38 µM)
isolate (source animal id): 278 | – | 4 (≈ 8.38 µM)
isolate (source animal id): 279 | – | 4 (≈ 8.38 µM)
isolate (source animal id): 280 | – | 4 (≈ 8.38 µM)
isolate (source animal id): 282 | 8 (≈ 16.8 µM) | –
isolate (source animal id): 284 | – | 8 (≈ 16.8 µM)
isolate (source animal id): 285 | 16 (≈ 33.5 µM) | 2 (≈ 4.19 µM)
isolate (source animal id): 287 | – | 2 (≈ 4.19 µM)
isolate (source animal id): 289 | 4 (≈ 8.38 µM) | –
isolate (source animal id): 290 | 4 (≈ 8.38 µM) | 4 (≈ 8.38 µM)
isolate (source animal id): 294 | – | 4 (≈ 8.38 µM)
isolate (source animal id): 295 | – | 2 (≈ 4.19 µM)
isolate (source animal id): 296 | 8 (≈ 16.8 µM) | 2 (≈ 4.19 µM)
isolate (source animal id): 298 | 4 (≈ 8.38 µM) | –
isolate (source animal id): 301 | 4 (≈ 8.38 µM) | –
isolate (source animal id): 307 | – | 4 (≈ 8.38 µM)
isolate (source animal id): 310 | 4 (≈ 8.38 µM) | 4 (≈ 8.38 µM)
isolate (source animal id): 311 | – | 4 (≈ 8.38 µM)
isolate (source animal id): 312 | – | ≤ 1
isolate (source animal id): 313 | – | 2 (≈ 4.19 µM)
isolate (source animal id): 315 | – | 4 (≈ 8.38 µM)
isolate (source animal id): 316 | – | 4 (≈ 8.38 µM)
isolate (source animal id): 320 | 8 (≈ 16.8 µM) | –
isolate (source animal id): 331 | 8 (≈ 16.8 µM) | –
isolate (source animal id): 333 | 4 (≈ 8.38 µM) | –
isolate (source animal id): 341 | 16 (≈ 33.5 µM) | –
